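Where inhibition never reached the appropriate level, the endpoint shown equals the highest concentration tested. Otherwise, values were interpolated linearly from a five-concentration, 48-hour dose response in 96-well plates. GI50: concentration for 50% inhibition of growth. Definition used: TGI = concentration required for complete inhibition of growth.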
Columns and labels:
Assay in all cases: DTP human tumour cell line panel, 48 h
RXF 393 renal = system: RXF 393 renal
NCI-H460 lung = system: NCI-H460 lung
786-0 renal = system: 786-0 renal
SK-MEL-2 melanoma = system: SK-MEL-2 melanoma
HT29 colon = system: HT29 colon
CAKI-1 renal = system: CAKI-1 renal
A549 NSCLC = system: A549 NSCLC
OVCAR-3 ovarian = system: OVCAR-3 ovarian
EKVX NSCLC = system: EKVX NSCLC
DU-145 prostate = system: DU-145 prostate
A498 renal = system: A498 renal
K-562 leukemia = system: K-562 leukemia
SN12C renal = system: SN12C renal
BT-549 breast = system: BT-549 breast
HS 578T breast = system: HS 578T breast
MCF7 breast = system: MCF7 breast
HCC-2998 colon = system: HCC-2998 colon
OVCAR-5 ovarian = system: OVCAR-5 ovarian
SW-620 colon = system: SW-620 colon
LOX IMVI melanoma = system: LOX IMVI melanoma
HCT-15 colon = system: HCT-15 colon
HL-60(TB) leukemia = system: HL-60(TB) leukemia
COLO 205 colon = system: COLO 205 colon
MALME-3M melanoma = system: MALME-3M melanoma
ACHN renal = system: ACHN renal
U251 CNS = system: U251 CNS
SK-MEL-28 melanoma = system: SK-MEL-28 melanoma
SNB-75 CNS = system: SNB-75 CNS
SNB-19 CNS = system: SNB-19 CNS
UO-31 renal = system: UO-31 renal
HOP-92 NSCLC = system: HOP-92 NSCLC
SF-268 CNS = system: SF-268 CNS
OVCAR-8 ovarian = system: OVCAR-8 ovarian
SK-MEL-5 melanoma = system: SK-MEL-5 melanoma
NCI-H226 lung = system: NCI-H226 lung
MDA-MB-435 = system: MDA-MB-435
NCI-H23 lung = system: NCI-H23 lung
MDA-MB-231 breast = system: MDA-MB-231 breast
M14 melanoma = system: M14 melanoma
SR leukemia = system: SR leukemia
HCT-116 colon = system: HCT-116 colon
SK-OV-3 ovarian = system: SK-OV-3 ovarian
KM12 colon = system: KM12 colon
T-47D breast = system: T-47D breast
HOP-62 NSCLC = system: HOP-62 NSCLC
IGROV1 ovarian = system: IGROV1 ovarian
TK-10 renal = system: TK-10 renal
SF-539 CNS = system: SF-539 CNS
OVCAR-4 ovarian = system: OVCAR-4 ovarian
UACC-257 melanoma = system: UACC-257 melanoma
RPMI-8226 leukemia = system: RPMI-8226 leukemia
NCI-H522 lung = system: NCI-H522 lung
PC-3 prostate = system: PC-3 prostate
UACC-62 melanoma = system: UACC-62 melanoma
SF-295 CNS = system: SF-295 CNS
CCRF-CEM leukemia = system: CCRF-CEM leukemia
MOLT-4 leukemia = system: MOLT-4 leukemia
NCI/ADR-RES ovarian = system: NCI/ADR-RES ovarian

## COc1cc(C2=C(c3ccccc3)COC2=O)cc(OC)c1OC
RXF 393 renal
  GI50: 1.56 µM
  TGI: > 100 µM
NCI-H460 lung
  GI50: 0.966 µM
  TGI: 56.4 µM
786-0 renal
  GI50: 4.3 µM
  TGI: > 100 µM
SK-MEL-2 melanoma
  GI50: 7.81 µM
  TGI: > 100 µM
HT29 colon
  GI50: 3.13 µM
  TGI: 97.5 µM
CAKI-1 renal
  GI50: 0.585 µM
  TGI: > 27.7 µM
A549 NSCLC
  GI50: 6.78 µM
  TGI: > 58.7 µM
OVCAR-3 ovarian
  GI50: 0.309 µM
  TGI: 2.1 µM
EKVX NSCLC
  GI50: > 31.8 µM
  TGI: > 100 µM
DU-145 prostate
  GI50: 4.68 µM
  TGI: > 100 µM
A498 renal
  GI50: 6.87 µM
  TGI: > 66.1 µM
K-562 leukemia
  GI50: 0.289 µM
  TGI: > 100 µM
SN12C renal
  GI50: 5.96 µM
  TGI: > 100 µM
BT-549 breast
  GI50: 33.9 µM
  TGI: > 100 µM
HS 578T breast
  GI50: 5.61 µM
  TGI: > 90 µM
MCF7 breast
  GI50: 0.537 µM
  TGI: > 100 µM
HCC-2998 colon
  GI50: 1.27 µM
  TGI: 5.97 µM
OVCAR-5 ovarian
  GI50: 4.84 µM
  TGI: > 100 µM
SW-620 colon
  GI50: 1.68 µM
  TGI: > 100 µM
LOX IMVI melanoma
  GI50: 18.6 µM
  TGI: > 100 µM
HCT-15 colon
  GI50: 2.96 µM
  TGI: > 100 µM
HL-60(TB) leukemia
  GI50: 0.409 µM
  TGI: 2.14 µM
COLO 205 colon
  GI50: 0.834 µM
  TGI: 6.69 µM
MALME-3M melanoma
  GI50: 0.439 µM
  TGI: > 100 µM
ACHN renal
  GI50: > 43.5 µM
  TGI: > 100 µM
U251 CNS
  GI50: 5.86 µM
  TGI: > 100 µM
SK-MEL-28 melanoma
  GI50: > 100 µM
  TGI: > 100 µM
SNB-75 CNS
  GI50: > 100 µM
  TGI: > 100 µM
SNB-19 CNS
  GI50: 4.42 µM
  TGI: > 100 µM
UO-31 renal
  GI50: 7.77 µM
  TGI: > 49.9 µM
HOP-92 NSCLC
  GI50: 13.6 µM
  TGI: > 100 µM
SF-268 CNS
  GI50: 2.39 µM
  TGI: > 76.5 µM
OVCAR-8 ovarian
  GI50: 5.04 µM
  TGI: > 51.4 µM
SK-MEL-5 melanoma
  GI50: 1.4 µM
  TGI: 19.3 µM
NCI-H226 lung
  GI50: 59.2 µM
  TGI: > 100 µM
MDA-MB-435
  GI50: 0.168 µM
  TGI: 0.645 µM
NCI-H23 lung
  GI50: 2.41 µM
  TGI: > 27.7 µM
MDA-MB-231 breast
  GI50: 3.2 µM
  TGI: > 100 µM
M14 melanoma
  GI50: 1.79 µM
  TGI: > 27.7 µM
SR leukemia
  TGI: 0.295 µM
HCT-116 colon
  GI50: 2.29 µM
  TGI: > 38.1 µM
SK-OV-3 ovarian
  GI50: 4.56 µM
  TGI: > 100 µM
KM12 colon
  GI50: 0.593 µM
  TGI: > 31.7 µM
T-47D breast
  GI50: 20.9 µM
  TGI: > 100 µM
HOP-62 NSCLC
  GI50: 2.07 µM
  TGI: > 100 µM
IGROV1 ovarian
  GI50: 5.82 µM
  TGI: > 56.5 µM
TK-10 renal
  GI50: 1.37 µM
  TGI: > 30.6 µM
SF-539 CNS
  GI50: 1.26 µM
  TGI: > 51.4 µM
OVCAR-4 ovarian
  GI50: 38.9 µM
  TGI: > 100 µM
UACC-257 melanoma
  GI50: > 25 µM
  TGI: > 94.8 µM
RPMI-8226 leukemia
  GI50: 1.12 µM
  TGI: 5.28 µM
NCI-H522 lung
  GI50: 2.48 µM
  TGI: > 57.4 µM
PC-3 prostate
  GI50: 1.35 µM
  TGI: > 100 µM
UACC-62 melanoma
  GI50: 1.63 µM
  TGI: > 100 µM
SF-295 CNS
  GI50: 0.324 µM
  TGI: 2.9 µM
CCRF-CEM leukemia
  GI50: 1.38 µM
  TGI: > 100 µM
MOLT-4 leukemia
  GI50: 4.18 µM
  TGI: > 100 µM

## NC(=O)c1ccc(I)c(N)c1
RXF 393 renal
  GI50: > 100 µM
  TGI: > 100 µM
NCI-H460 lung
  GI50: > 100 µM
  TGI: > 100 µM
786-0 renal
  GI50: > 100 µM
  TGI: > 100 µM
SK-MEL-2 melanoma
  GI50: > 100 µM
  TGI: > 100 µM
HT29 colon
  GI50: > 100 µM
  TGI: > 100 µM
CAKI-1 renal
  GI50: > 100 µM
  TGI: > 100 µM
A549 NSCLC
  GI50: > 100 µM
  TGI: > 100 µM
OVCAR-3 ovarian
  GI50: > 100 µM
  TGI: > 100 µM
EKVX NSCLC
  GI50: > 100 µM
  TGI: > 100 µM
DU-145 prostate
  GI50: > 100 µM
  TGI: > 100 µM
SN12C renal
  GI50: > 100 µM
  TGI: > 100 µM
BT-549 breast
  GI50: > 100 µM
  TGI: > 100 µM
HS 578T breast
  GI50: > 100 µM
  TGI: > 100 µM
MCF7 breast
  GI50: > 100 µM
  TGI: > 100 µM
HCC-2998 colon
  GI50: > 100 µM
  TGI: > 100 µM
OVCAR-5 ovarian
  GI50: > 100 µM
  TGI: > 100 µM
SW-620 colon
  GI50: > 100 µM
  TGI: > 100 µM
NCI/ADR-RES ovarian
  GI50: > 100 µM
  TGI: > 100 µM
LOX IMVI melanoma
  GI50: > 100 µM
  TGI: > 100 µM
HCT-15 colon
  GI50: > 100 µM
  TGI: > 100 µM
HL-60(TB) leukemia
  GI50: > 100 µM
  TGI: > 100 µM
COLO 205 colon
  GI50: > 100 µM
  TGI: > 100 µM
MALME-3M melanoma
  GI50: > 100 µM
  TGI: > 100 µM
ACHN renal
  GI50: > 100 µM
  TGI: > 100 µM
U251 CNS
  GI50: > 100 µM
  TGI: > 100 µM
SK-MEL-28 melanoma
  GI50: > 100 µM
  TGI: > 100 µM
SNB-75 CNS
  GI50: > 100 µM
  TGI: > 100 µM
SNB-19 CNS
  GI50: > 100 µM
  TGI: > 100 µM
UO-31 renal
  GI50: > 100 µM
  TGI: > 100 µM
HOP-92 NSCLC
  GI50: > 100 µM
  TGI: > 100 µM
SF-268 CNS
  GI50: > 100 µM
  TGI: > 100 µM
OVCAR-8 ovarian
  GI50: > 100 µM
  TGI: > 100 µM
SK-MEL-5 melanoma
  GI50: > 100 µM
  TGI: > 100 µM
NCI-H226 lung
  GI50: > 100 µM
  TGI: > 100 µM
MDA-MB-435
  GI50: > 100 µM
  TGI: > 100 µM
NCI-H23 lung
  GI50: > 100 µM
  TGI: > 100 µM
MDA-MB-231 breast
  GI50: > 100 µM
  TGI: > 100 µM
M14 melanoma
  GI50: > 100 µM
  TGI: > 100 µM
SR leukemia
  GI50: > 100 µM
  TGI: > 100 µM
HCT-116 colon
  GI50: > 100 µM
  TGI: > 100 µM
SK-OV-3 ovarian
  GI50: > 100 µM
  TGI: > 100 µM
KM12 colon
  GI50: > 100 µM
  TGI: > 100 µM
T-47D breast
  GI50: > 100 µM
  TGI: > 100 µM
HOP-62 NSCLC
  GI50: > 100 µM
  TGI: > 100 µM
IGROV1 ovarian
  GI50: > 100 µM
  TGI: > 100 µM
TK-10 renal
  GI50: > 100 µM
  TGI: > 100 µM
SF-539 CNS
  GI50: > 100 µM
  TGI: > 100 µM
OVCAR-4 ovarian
  GI50: > 100 µM
  TGI: > 100 µM
UACC-257 melanoma
  GI50: > 100 µM
  TGI: > 100 µM
RPMI-8226 leukemia
  GI50: > 100 µM
  TGI: > 100 µM
NCI-H522 lung
  GI50: > 100 µM
  TGI: > 100 µM
UACC-62 melanoma
  GI50: > 100 µM
  TGI: > 100 µM
SF-295 CNS
  GI50: > 100 µM
  TGI: > 100 µM
CCRF-CEM leukemia
  GI50: > 100 µM
  TGI: > 100 µM
MOLT-4 leukemia
  GI50: > 100 µM
  TGI: > 100 µM
